Reference: US20060173068A1, “Amorphous and crystalline forms of dorzolamide hydrochloride and processes of making same” (priority 2005, published 2006)

Assays:
[1] = Effect of varying relative humidity on amorphous Dorzolamide hydrochloride (hygroscopicity chamber; LOD by TGA, crystal form by XRD); type: physicochemical
Experimental: (§1) The scanning parameters are as follows: the range is preferably about 2° to about 40° 2θ over a substantially continuous scan at a rate of about 3° per minute. The accuracy of peak positions is defined as ±0.2° due to experimental differences, such as instrumentations, sample preparations, and the like.
Thermal Gravimetric Analysis (TGA) is preferably performed with a Mettler Toledo TGA/SDTA 851^e. Sample weights preferably range from about 7 to about 15 mg, the heating rate is preferably about 10° C. per minute in a N2 stream having a flow rate of about 50 ml per minute over a scan range of about 30° to about 250° C.
Each of a series of 200 mg samples of amorphous Dorzolamide hydrochloride are exposed to a relative humidity (RH) of one of 0, 20, 40, 60, 80, and 100 percent for a period of 5 days at room temperature in a hygroscopicity chamber. The loss on drying (LOD) of the samples is measured by TGA before and after exposure, and the values obtained are plotted against the RH values. In addition, the crystal form of each sample is measured by XRD before and after the exposure.

[2] = Exposure of amorphous Dorzolamide HCl to about 160° C. for about 15 minutes, crystal form by XRD; type: physicochemical; settings: oven, open glass weighing bottle
Experimental: as §1

[3] = RH 0 %, 5 days, room temperature
[4] = RH 20 %, 5 days, room temperature
[5] = RH 40 %, 5 days, room temperature

- Crystal form by XRD ([1]; Original sample, before exposure): amorphous
- LOD (%) ([1]; Original sample, before exposure, LOD by TGA): 2.7%
- Crystal form by XRD [1, 3]: amorphous
- LOD (%) [1, 3]: 2.0%
- Crystal form by XRD [1, 4]: amorphous
- LOD (%) [1, 4]: 2.9%
- Crystal form by XRD [1, 5]: amorphous
- LOD (%) [1, 5]: 3.8%
- LOD (%) ([1]; RH 60 %, 5 days, room temperature): 0.2%
- Crystal form by XRD ([1]; RH 60 %, 5 days, room temperature, hydrochloride): Form II
- Crystal form by XRD ([1]; RH 60 %, 5 days, room temperature, listed as Dorzolamide HCl, hydrochloride): transforms to crystal form II
- LOD (%) ([1]; RH 80 %, 5 days, room temperature): 0.2%
- Crystal form by XRD ([1]; RH 80 %, 5 days, room temperature, hydrochloride): Form II
- Crystal form by XRD ([1]; RH 80 %, 5 days, room temperature, listed as Dorzolamide HCl, hydrochloride): transforms to crystal form II
- LOD (%) ([1]; RH 100 %, 5 days, room temperature): 0.2%
- Crystal form by XRD ([1]; RH 100 %, 5 days, room temperature, hydrochloride): Form II
- Crystal form by XRD ([1]; RH 100 %, 5 days, room temperature, listed as Dorzolamide HCl, hydrochloride): transforms to crystal form II
Compound: CCN[C@H]1C[C@H](C)S(=O)(=O)c2sc(S(N)(=O)=O)cc21.Cl [Amorphous Dorzolamide HCl, 5,6-dihydro-4-(S)-ethylamino-6-(S)-methyl-4H-thieno-[2,3-b]thiopyran-2-sulfonamide-7,7-dioxyde hydrochloride]
- Crystal form by XRD after heating [2]: changed the material to the crystalline, anhydrous form II
